{"source": "ChEMBL document CHEMBL1140515", "about": "“Virtual screening and bioassay study of novel inhibitors for dengue virus mRNA cap (nucleoside-2'O)-methyltransferase” (Bioorg Med Chem, 2007)", "data": [{"tested_on": "not listed separately", "test": "Inhibition of Dengue virus NS5MTase assessed as methylation of 7MeGpppAC5", "units": {"IC50": "µM"}, "values": [{"compound": "Cc1ccc(C23CC4CC(CC(NC(=O)N[C@@H](Cc5ccccc5)C(=O)O)(C4)C2)C3)cc1", "IC50": 60.5}]}, {"tested_on": "Dengue virus", "test": "Inhibition of Dengue virus NS5MTase assessed as methylation of 7MeGpppAC5 at 100 uM", "units": {"inhibition": "%"}, "values": [{"compound": "CC[C@@H](C)[C@H](NS(=O)(=O)c1ccc(C)cc1)C(=O)Oc1cc2oc(=O)cc(-c3ccccc3)c2cc1Cl", "inhibition": 5}, {"compound": "O=C(O)[C@H]1CCCC[C@@H]1C(=O)N[C@H]1CCCC[C@@H]1NC(=O)[C@@H]1CCCC[C@H]1C(=O)O", "inhibition": 5}, {"compound": "CN(C)S(=O)(=O)c1ccc(Cl)c(NC(=O)COC(=O)CNC(=O)CC23CC4CC(CC(C4)C2)C3)c1", "inhibition": 5}, {"compound": "O=C(N[C@@H](Cc1ccccc1)C(=O)O)c1ccc(C(=O)N[C@H](Cc2ccccc2)C(=O)O)cc1", "inhibition": 5}, {"compound": "Cc1ccc(C23CC4CC(CC(NC(=O)N[C@@H](Cc5ccccc5)C(=O)O)(C4)C2)C3)cc1", "inhibition": 75}, {"compound": "O=C(Oc1cccc(NC2=NS(=O)(=O)c3ccccc32)c1)c1ccc(S(=O)(=O)N2CCCCC2)cc1", "inhibition": 5}, {"compound": "Cc1ccc(S(=O)(=O)N2CCCCC2)cc1NC(=O)COC(=O)CN1C(=O)N[C@@]2(C[C@H](C)CC(C)(C)C2)C1=O", "inhibition": 5}, {"compound": "CC[C@@H](C)[C@H](NS(=O)(=O)c1ccc(C)cc1)C(=O)Oc1ccc2c(-c3ccc(OC)cc3)cc(=O)oc2c1", "inhibition": 5}, {"compound": "C[n+]1cn(CCCCCCn2cc([C@@H](O)c3ccccc3)[n+](C)c2)cc1[C@@H](O)c1ccccc1", "inhibition": 5}, {"compound": "N[C@H](C(=O)O)[C@@H](O)c1ccc(OCc2ccccc2)c(OCc2ccccc2)c1", "inhibition": 5}, {"compound": "CC(C)[C@@H](N)C(=O)NC[C@H]1CC[C@@H](C(=O)N[C@@H](Cc2ccccc2)C(=O)O)CC1", "inhibition": 5}, {"compound": "CC[C@@H](C)[C@H](NS(=O)(=O)c1ccc(C)cc1)C(=O)Oc1ccc2c(c1)oc(=O)c1cc(OC)ccc12", "inhibition": 5}, {"compound": "CCOC(=O)Cn1c(=O)n(C[C@H]2CC[C@H](C(=O)NCCc3ccccc3)CC2)c(=O)c2ccccc21", "inhibition": 5}, {"compound": "COC(=O)[C@@H](Cc1ccccc1)NC(=O)NC12CC3CC(C1)CC(c1ccc(C)cc1)(C3)C2", "inhibition": 5}, {"compound": "Cc1cc2oc(=O)cc(COC(=O)CN3C(=O)N[C@]4(C[C@H](C)CC(C)(C)C4)C3=O)c2cc1C(C)C", "inhibition": 5}]}]}
